Like-named read-outs stand apart in the source and are kept apart here.
Test system: L3 animals
Assay: Abnormal locomotory behaviour of L3 animals on solid agar (extended SAR)
Assay type: in vivo, Caenorhabditis elegans
Conditions: Caenorhabditis elegans
Procedure: 20 animals were scored after either 1, 6 or 24 hours of exposure to drug (as indicated) per replicate. […] Data are reported as the mean % of animals with abnormal phenotype over 4 independent replicates.

[1] = 1 h, read-out: % any phene 1 h (conc.) 3.75
[2] = 1 h, read-out: % any phene 1 h (conc.) 15
[3] = 1 h, read-out: % any phene 1 h (conc.) 60
[4] = 6 h, read-out: % any phene 6 h (conc.) 3.75
[5] = 6 h, read-out: % any phene 6 h (conc.) 15
[6] = 6 h, read-out: % any phene 6 h (conc.) 60
[7] = 24 h, read-out: % any phene 24 h (conc.) 3.75
[8] = 24 h, read-out: % any phene 24 h (conc.) 15
[9] = 24 h, read-out: % any phene 24 h (conc.) 60
[10] = 3.75 uM, 1 h exposure, L3, mean of 4 replicates, read-out: % any phene 1 h (conc.) 3.75
[11] = 3.75 uM, 6 h exposure, L3, mean of 4 replicates, read-out: % any phene 6 h (conc.) 3.75
[12] = 3.75 uM, 24 h exposure, L3, mean of 4 replicates, read-out: % any phene 24 h (conc.) 3.75
[13] = 15 uM, 1 h exposure, L3, mean of 4 replicates, read-out: % any phene 1 h (conc.) 15
[14] = 15 uM, 6 h exposure, L3, mean of 4 replicates, read-out: % any phene 6 h (conc.) 15
[15] = 15 uM, 24 h exposure, L3, mean of 4 replicates, read-out: % any phene 24 h (conc.) 15
[16] = 60 uM, 1 h exposure, L3, mean of 4 replicates, read-out: % any phene 1 h (conc.) 60
[17] = 60 uM, 6 h exposure, L3, mean of 4 replicates, read-out: % any phene 6 h (conc.) 60
[18] = 60 uM, 24 h exposure, L3, mean of 4 replicates, read-out: % any phene 24 h (conc.) 60

SMILES	pest or weed control at 3.75 µM [1] [%]	pest or weed control at 15 µM [2] [%]	pest or weed control at 60 µM [3] [%]	pest or weed control at 3.75 µM [4] [%]	pest or weed control at 15 µM [5] [%]	pest or weed control at 60 µM [6] [%]	pest or weed control at 3.75 µM [7] [%]	pest or weed control at 15 µM [8] [%]	pest or weed control at 60 µM [9] [%]	pest or weed control at 3.75 µM [10] [%]	pest or weed control at 3.75 µM [11] [%]	pest or weed control at 3.75 µM [12] [%]	pest or weed control at 15 µM [13] [%]	pest or weed control at 15 µM [14] [%]	pest or weed control at 15 µM [15] [%]	pest or weed control at 60 µM [16] [%]	pest or weed control at 60 µM [17] [%]	pest or weed control at 60 µM [18] [%]
Fc1ccc(N2CCN(CC3CCCCC3)CC2)cc1 [Ig]	21.7	44.2	95	0.8	9.2	79.2	0	4.2	66.7									
c1ccc(N2CCN(CC3CCCC3)CC2)cc1 [Ihh]										4.2	0	0	70	1.7	0	100	53.3	5
Clc1ccc(N2CCN(CC3CCCCC3)CC2)cc1 [Ih]	0	27.5	55.7	0	0	5.8	0	0	10.8									
CC1CCC(N2CCN(c3ccc(F)cc3)CC2)CC1 (stereo not shown) [Ibb]											5	0		75.8	13.3	100	100	100
CC1CCC(N2CCN(c3ccccc3)CC2)CC1 (stereo not shown) [Iz]										60.8	0	0	96.7	6.7	0	99.2	85	14.2
Fc1ccc(N2CCN(C3CCCCCC3)CC2)cc1 [Iaa]										45	6.7	0	89.2	27.5	0	100	97.5	69.2
O=[N+]([O-])c1ccc(N2CCN(C3CCCCCCC3)CC2)cc1 [Is]										3.3	0	0		15	0	100	62.5	13.3
c1ccc(N2CCN(C3CCCCCC3)CC2)cc1 [Iff]										24.2	6.7	0	98.3	28.3	0	100	51.7	0
Clc1ccc(N2CCN(CC3CC4C=CC3C4)CC2)cc1 (stereo not shown) [Ix]										89.2	100	66.7	100	100	100	100	100	100
O=[N+]([O-])c1ccc(N2CCN(C3CCCCCC3)CC2)cc1 [Ir]										43.3	9.2	0		88.3	30	100	100	100
Clc1ccc(N2CCN(C3CCCCCC3)CC2)cc1 [Idd]											86.7	34.2	100	100	98.3	100	97.5	97.5

Reference: US11517568B2, “Compounds and methods for treating nematode infections” (The Governing Council of The University of Toronto, priority 2018, dated 2022)
